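Results reflect a 48-hour exposure of cells in 96-well plates to compound at five concentrations. Here, GI50 denotes the concentration required for 50% inhibition of growth.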 Activity calls are given as the source filed them. Rule as the data show it: active = GI50 up to about 1.1 µM and inactive = higher.
Columns and labels:
Assay in all cases: DTP human tumour cell line panel, 48 h
SN12C = tested on: SN12C
KM12 = tested on: KM12
MCF7 = tested on: MCF7
SR = tested on: SR
OVCAR-4 = tested on: OVCAR-4
HL-60 = tested on: HL-60
PC-3 = tested on: PC-3
SNB-19 = tested on: SNB-19
UACC-62 = tested on: UACC-62
A498 = tested on: A498
SK-OV-3 = tested on: SK-OV-3
EKVX = tested on: EKVX
RXF 393 = tested on: RXF 393
SF-268 = tested on: SF-268
MDA-N = tested on: MDA-N
MDA-MB-435 = tested on: MDA-MB-435
U-251 = tested on: U-251
NCI-H522 = tested on: NCI-H522
RPMI-8226 = tested on: RPMI-8226
HOP-92 = tested on: HOP-92

Measured: GI50

O=S1(=O)c2ccccc2N2CCCc3cc(Cl)cc1c32
inactive: SN12C > 100 µM | KM12 > 100 µM | MCF7 > 100 µM | SR > 100 µM | OVCAR-4 46.2 µM | HL-60 > 100 µM | PC-3 > 100 µM | SNB-19 56.6 µM | UACC-62 60.1 µM | A498 > 100 µM | SK-OV-3 51.9 µM | EKVX > 100 µM | RXF 393 25.2 µM | SF-268 34.4 µM | MDA-N > 100 µM | MDA-MB-435 > 100 µM

CCOC(=O)c1c(NS(=O)(=O)c2ccc(Br)cc2)sc2c1CCCC2
inactive: SN12C 6.14 µM | KM12 6.65 µM | MCF7 10.3 µM | U-251 12.4 µM | SR 19.7 µM | OVCAR-4 30.1 µM | NCI-H522 2.03 µM | HL-60 6.18 µM | PC-3 5.41 µM | SNB-19 7.46 µM | UACC-62 6.46 µM | A498 9.4 µM | SK-OV-3 18.5 µM | EKVX 4.52 µM | RXF 393 2.67 µM | SF-268 3.72 µM | RPMI-8226 4.6 µM | MDA-N 13.8 µM | MDA-MB-435 19.4 µM

CC(C)(C(=O)NN)c1ccccc1
inactive: HOP-92 > 100 µM | SN12C > 100 µM | KM12 42.3 µM | MCF7 > 100 µM | U-251 > 100 µM | SR > 100 µM | NCI-H522 56.2 µM | HL-60 > 100 µM | PC-3 > 100 µM | SNB-19 > 100 µM | UACC-62 19.3 µM | A498 > 100 µM | SK-OV-3 > 100 µM | EKVX 34.6 µM | SF-268 45.3 µM | RPMI-8226 84.1 µM | MDA-N 42.4 µM | MDA-MB-435 86.5 µM

OC1(c2ccccc2)CC2CCC(C1)N2CCCC1(c2ccc(F)cc2)OCCO1 (stereo not given)
inactive: SN12C > 100 µM | MCF7 > 100 µM | U-251 > 100 µM | SR 27.3 µM | OVCAR-4 > 100 µM | NCI-H522 > 100 µM | HL-60 6.78 µM | PC-3 22.5 µM | UACC-62 > 100 µM | A498 > 100 µM | SK-OV-3 > 100 µM | EKVX > 100 µM | RXF 393 59.7 µM | SF-268 > 100 µM | RPMI-8226 61.4 µM | MDA-N > 100 µM | MDA-MB-435 > 100 µM

CCOC(=O)/C(=C\NC(=S)Nc1ccc(Cl)c(Cl)c1)C(=O)c1ccccc1
inactive: SN12C 46.5 µM | KM12 26.5 µM | MCF7 33.3 µM | U-251 37.2 µM | SR 20.4 µM | OVCAR-4 41.5 µM | NCI-H522 6.3 µM | HL-60 22.8 µM | PC-3 21.5 µM | UACC-62 32.3 µM | A498 3.94 µM | SK-OV-3 36.2 µM | EKVX > 100 µM | RXF 393 21.6 µM | SF-268 26.6 µM | RPMI-8226 5.12 µM | MDA-N 27.2 µM | MDA-MB-435 17.7 µM

COc1ccc2c(c1)OCC1Cc3cc4c(cc3OC21)OCO4 (stereo not given)
inactive: HOP-92 > 100 µM | SN12C 28.4 µM | KM12 31.8 µM | MCF7 46.8 µM | U-251 42.6 µM | SR 40.6 µM | NCI-H522 49.2 µM | PC-3 41.6 µM | SNB-19 > 100 µM | UACC-62 31.3 µM | A498 > 100 µM | SK-OV-3 37.2 µM | EKVX 41.1 µM | SF-268 55.7 µM | RPMI-8226 71.4 µM | MDA-N 3.14 µM | MDA-MB-435 7.73 µM

Source: ChEMBL document CHEMBL1201862, “PubChem BioAssay data set” (2004)
